This note sets out measurements from PubChem BioAssay (NCI).

Some test systems named below: CAKI-1 renal; CCRF-CEM leukemia; EKVX NSCLC; HCT-15 colon; HS 578T breast; IGROV1 ovarian; RPMI-8226 leukemia; RXF 393 renal; UO-31 renal; NCI-H226 lung.
Holding throughout (assay): NCI tumour cell line growth inhibition, 48 h

SMILES strings stand for the structures.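 Exposure lasted 48 hours, with cells grown in 96-well plates and compounds tested at five concentrations. The concentration for 50% growth inhibition is given as GI50. TGI denotes the concentration required for complete inhibition of growth.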 A value given as a limit tells only on which side of the number the result lay.

For the molecule `CC[C@]12CCCN3CC[C@]4(C(=C(C(=O)OC)C1)Nc1ccccc14)[C@@H]32`, the GI50 with CAKI-1 renal was 11.8 µM; in the assay with CCRF-CEM leukemia it was 21.4 µM; in the assay with EKVX NSCLC, 18.9 µM; with HCT-15 colon, 13.7 µM; in the assay on HS 578T breast it was 17.3 µM; with IGROV1 ovarian, 16.8 µM. Further, the GI50 is 19.4 µM with RPMI-8226 leukemia, 15.5 µM with RXF 393 renal and 10.9 µM in the assay on UO-31 renal. The TGI came out at 32.8 µM with CAKI-1 renal; 70 µM in the assay with CCRF-CEM leukemia; 63.1 µM in the assay on EKVX NSCLC; 28.5 µM with HCT-15 colon; 76.1 µM in the assay on HS 578T breast; 45.6 µM in the assay on IGROV1 ovarian. Further, the TGI in the assay on RPMI-8226 leukemia amounted to 51.2 µM; with RXF 393 renal, 30.4 µM; with UO-31 renal, 24.1 µM.

As to `O=C1c2ccccc2C(=O)c2c1ccc1c2OCO1`, the TGI in the assay with CAKI-1 renal, in the assay with EKVX NSCLC, in the assay on HCT-15 colon, with HS 578T breast, in the assay with IGROV1 ovarian and with NCI-H226 lung was over 100 µM each time. The TGI in the assay on RPMI-8226 leukemia, in the assay on RXF 393 renal and with UO-31 renal was over 100 µM throughout.

`C=C(CN1CCN(c2cccc(F)c2)CC1)c1ccc(C(=O)Nc2ccccc2N)cc1`: the GI50 is 0.629 µM in the assay on CAKI-1 renal; 6.68 µM with EKVX NSCLC; 1.02 µM in the assay with HCT-15 colon; 2.61 µM in the assay on HS 578T breast; 0.333 µM in the assay with IGROV1 ovarian; 4.17 µM with NCI-H226 lung. For the same molecule, the GI50 was 0.429 µM with RPMI-8226 leukemia, 0.563 µM in the assay with RXF 393 renal and 1.31 µM in the assay on UO-31 renal. Moreover, the TGI in the assay on CAKI-1 renal was 7.74 µM; in the assay on EKVX NSCLC, over 100 µM; in the assay with HCT-15 colon, over 100 µM; in the assay on HS 578T breast, over 100 µM; in the assay with IGROV1 ovarian, 3.9 µM; with NCI-H226 lung, 35.2 µM. In addition, the results for the TGI with RPMI-8226 leukemia, with RXF 393 renal and with UO-31 renal were 2.89 µM, 6.09 µM and 10.2 µM, respectively.

Regarding `O=C1C(Cl)=C(Nc2cccc(O)c2)C(=O)N1c1cccc(Cl)c1Cl`, the GI50 with CAKI-1 renal was 3.14 µM; in the assay with CCRF-CEM leukemia, 8.38 µM; in the assay with EKVX NSCLC, 49.6 µM; in the assay on HCT-15 colon, 20.7 µM; in the assay with HS 578T breast it was 1.71 µM; in the assay on IGROV1 ovarian it was 5.96 µM. Further, the GI50 in the assay on RPMI-8226 leukemia is 1.56 µM; with RXF 393 renal, 18.4 µM; in the assay on UO-31 renal, 23.3 µM. Further, the TGI is 20.2 µM in the assay on CAKI-1 renal; 50.4 µM with CCRF-CEM leukemia; over 100 µM in the assay on EKVX NSCLC; 56.7 µM with HCT-15 colon; 14.4 µM with HS 578T breast; 23.4 µM in the assay on IGROV1 ovarian. Moreover, the TGI with RPMI-8226 leukemia was 16.2 µM; in the assay on RXF 393 renal, 42.4 µM; in the assay on UO-31 renal it was over 100 µM.

As to `O=CC1(C2(C=O)c3ccccc3-c3ccccc32)c2ccccc2-c2ccccc21`, the GI50 with CAKI-1 renal is 1.27 µM; with CCRF-CEM leukemia it was 3.77 µM; with EKVX NSCLC, 1.96 µM; in the assay on HCT-15 colon it was 1.68 µM; in the assay with HS 578T breast, 2.7 µM; in the assay on IGROV1 ovarian, 0.323 µM. For the same molecule, the GI50 in the assay with NCI-H226 lung is 3.3 µM; in the assay on UO-31 renal, 1.92 µM. The TGI turned out to be 3.62 µM in the assay with CAKI-1 renal; 11.6 µM in the assay on CCRF-CEM leukemia; 5.24 µM in the assay with EKVX NSCLC; 3.66 µM in the assay on HCT-15 colon; 7.49 µM with HS 578T breast; 0.924 µM in the assay with IGROV1 ovarian. The TGI is 7.24 µM with NCI-H226 lung and 4.32 µM in the assay on UO-31 renal.

Turning to `COC(=O)C1C2CCCN2OC1(C)CO` (centres undefined), the TGI with CAKI-1 renal, in the assay with CCRF-CEM leukemia, in the assay with EKVX NSCLC, in the assay on HCT-15 colon, in the assay on HS 578T breast and in the assay with IGROV1 ovarian was over 100 µM each time. Moreover, the TGI in the assay on NCI-H226 lung, in the assay on RPMI-8226 leukemia and in the assay on UO-31 renal was over 100 µM throughout.

Take `O=c1cccc(C#CC#C/C=C/CO)o1`: the GI50 with CAKI-1 renal is 1.91 µM; in the assay with EKVX NSCLC, 2.77 µM; in the assay on HCT-15 colon it was 1.98 µM; with HS 578T breast, 6.87 µM; with IGROV1 ovarian, 2.82 µM; in the assay with NCI-H226 lung it was 1.31 µM. The figures for the GI50 in the assay with RPMI-8226 leukemia, in the assay with RXF 393 renal and with UO-31 renal were 2.63 µM, 2.38 µM and 2.6 µM, respectively. In addition, the TGI is 3.6 µM in the assay on CAKI-1 renal; 6.47 µM in the assay with EKVX NSCLC; 5.15 µM in the assay on HCT-15 colon; 39.9 µM in the assay on HS 578T breast; 7.68 µM with NCI-H226 lung; over 100 µM in the assay with RPMI-8226 leukemia. The TGI in the assay on RXF 393 renal was found to be 7.03 µM.

As for `CC([O-])C(=O)[O-].NCC1CCC1CN.[Pt+4]` (centres undefined), the GI50 in the assay with CAKI-1 renal is over 10 µM; with CCRF-CEM leukemia it was 4.39 µM; in the assay with EKVX NSCLC, over 10 µM; with HCT-15 colon, over 10 µM; in the assay on HS 578T breast, over 10 µM; with IGROV1 ovarian, over 10 µM. The GI50 with NCI-H226 lung and in the assay with RPMI-8226 leukemia was over 10 µM throughout. In addition, the TGI in the assay on CAKI-1 renal, in the assay with CCRF-CEM leukemia, in the assay on EKVX NSCLC, with HCT-15 colon, in the assay on HS 578T breast and with IGROV1 ovarian was over 10 µM throughout. Further, the TGI in the assay with NCI-H226 lung and in the assay with RPMI-8226 leukemia was over 10 µM in each case.

As for `CN(C)/C=N/c1nc2ncn(CCOC(=O)c3ccccc3)c2c(=O)[nH]1`, the TGI in the assay on CAKI-1 renal, with CCRF-CEM leukemia, with EKVX NSCLC, in the assay with HCT-15 colon, in the assay with IGROV1 ovarian and in the assay on NCI-H226 lung was over 100 µM throughout. The TGI with RPMI-8226 leukemia, in the assay with RXF 393 renal and with UO-31 renal was over 100 µM each time.
